# Assay results taken from patent US11548893B2 (priority 2017, dated 2023).
# Read-outs that look alike come from different tables or passages of the source.
# Legend:
# Ebola Zaire [1] = system: Ebola Zaire
# in vitro [2] = conditions: African green monkey, Cytotox CC50
# physchem = conditions: pH 7, kinetic from dmso stock
# Sudan Gulu [3] = test: organism not typed; conditions: read-out: Sudan Gulu EC50
# in vitro [4] = conditions: mouse
# in vitro [5] = conditions: African green monkey
# Ebola Zaire [6] = test: microbe, parasite or virus in culture; conditions: Zaire ebolavirus, HeLa, read-out: Ebola Zaire EC50
# Sudan Gulu [7] = test: organism not typed; conditions: HeLa, read-out: Sudan Gulu EC50
# Ebola Zaire [8] = test: microbe, parasite or virus in culture; conditions: Zaire ebolavirus, read-out: Ebola Zaire EC90
# Cyp-p450 2C8 = Cyp-p450 2C8 (Homo sapiens, UniProt P10632)
# Sequence of Cyp-p450 2C8 (P10632 whole entry): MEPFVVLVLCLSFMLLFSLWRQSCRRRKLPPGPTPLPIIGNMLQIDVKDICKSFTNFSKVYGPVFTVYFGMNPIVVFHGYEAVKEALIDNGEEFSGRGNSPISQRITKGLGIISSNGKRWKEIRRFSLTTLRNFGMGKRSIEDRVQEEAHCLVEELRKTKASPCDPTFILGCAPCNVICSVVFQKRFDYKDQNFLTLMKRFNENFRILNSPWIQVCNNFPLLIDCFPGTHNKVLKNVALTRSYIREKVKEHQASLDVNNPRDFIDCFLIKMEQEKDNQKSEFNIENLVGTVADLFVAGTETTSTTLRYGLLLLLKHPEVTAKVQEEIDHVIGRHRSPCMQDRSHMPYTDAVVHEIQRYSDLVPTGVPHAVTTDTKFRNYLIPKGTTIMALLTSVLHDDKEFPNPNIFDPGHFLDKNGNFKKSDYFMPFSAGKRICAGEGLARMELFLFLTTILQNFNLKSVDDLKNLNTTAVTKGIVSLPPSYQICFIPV
# Ebola Zaire [9] = test: microbe, parasite or virus in culture; conditions: Zaire ebolavirus, read-out: Ebola Zaire EC50
# [10] = system: EBOV_FL: full-length Ebola Zaire GP (VSV pseudotype); test: microbe, parasite or virus in culture; format: cell-based, Zaire ebolavirus; conditions: Zaire ebolavirus, Vero, 24 h, read-out: EC50 Pseudotype Assays EBOV_FL
# [11] = pH 7
# [12] = system: EBOV (mucin-deleted glycoprotein, VSV pseudotype); test: microbe, parasite or virus in culture; format: cell-based, Zaire ebolavirus; conditions: Zaire ebolavirus, Vero, 24 h, read-out: EC50 Pseudotype Assays EBOV
# Cyp-p450 2C9 = Cyp-p450 2C9 (Homo sapiens, UniProt P11712)
# Sequence of Cyp-p450 2C9 (P11712 whole entry): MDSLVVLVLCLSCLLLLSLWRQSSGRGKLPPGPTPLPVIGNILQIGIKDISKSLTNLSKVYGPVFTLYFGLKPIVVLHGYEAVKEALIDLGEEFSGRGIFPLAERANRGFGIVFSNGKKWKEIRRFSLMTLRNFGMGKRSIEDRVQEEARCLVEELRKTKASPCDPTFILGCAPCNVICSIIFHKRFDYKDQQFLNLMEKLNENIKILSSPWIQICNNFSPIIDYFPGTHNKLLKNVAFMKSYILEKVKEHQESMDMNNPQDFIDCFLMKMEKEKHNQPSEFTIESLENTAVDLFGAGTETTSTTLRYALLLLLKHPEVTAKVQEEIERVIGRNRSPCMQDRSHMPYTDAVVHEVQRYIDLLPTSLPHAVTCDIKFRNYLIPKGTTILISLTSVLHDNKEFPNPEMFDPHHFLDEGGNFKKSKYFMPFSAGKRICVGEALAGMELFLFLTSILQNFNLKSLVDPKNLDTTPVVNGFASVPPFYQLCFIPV
# EBOV (Mayinga) = test: microbe, parasite or virus in culture; format: cell-based, Ebola virus
# Cyp-p450 1A2 = Cyp-p450 1A2 (Homo sapiens, UniProt P05177)
# Sequence of Cyp-p450 1A2 (P05177 whole entry): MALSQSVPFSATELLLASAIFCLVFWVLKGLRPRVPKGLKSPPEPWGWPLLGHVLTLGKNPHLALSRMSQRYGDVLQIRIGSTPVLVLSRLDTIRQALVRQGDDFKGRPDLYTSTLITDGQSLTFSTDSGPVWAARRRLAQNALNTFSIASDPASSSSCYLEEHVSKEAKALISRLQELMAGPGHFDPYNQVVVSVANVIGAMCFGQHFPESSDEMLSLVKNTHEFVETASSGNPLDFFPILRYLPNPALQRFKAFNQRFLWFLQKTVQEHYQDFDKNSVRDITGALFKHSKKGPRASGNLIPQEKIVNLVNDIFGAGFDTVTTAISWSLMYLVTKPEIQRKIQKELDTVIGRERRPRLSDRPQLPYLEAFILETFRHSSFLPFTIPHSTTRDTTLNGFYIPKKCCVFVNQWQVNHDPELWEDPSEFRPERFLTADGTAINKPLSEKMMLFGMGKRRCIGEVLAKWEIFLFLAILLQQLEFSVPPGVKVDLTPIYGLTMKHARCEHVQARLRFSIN
# [13] = system: SUDV (glycoprotein, VSV pseudotype); test: microbe, parasite or virus in culture; format: cell-based, Sudan ebolavirus; conditions: Vesicular stomatitis virus, Vero, 24 h, read-out: EC50 Pseudotype Assays SUDV
# Cyp-p450 3A4 = Cyp-p450 3A4 (Homo sapiens, UniProt P08684)
# Sequence of Cyp-p450 3A4 (P08684 whole entry): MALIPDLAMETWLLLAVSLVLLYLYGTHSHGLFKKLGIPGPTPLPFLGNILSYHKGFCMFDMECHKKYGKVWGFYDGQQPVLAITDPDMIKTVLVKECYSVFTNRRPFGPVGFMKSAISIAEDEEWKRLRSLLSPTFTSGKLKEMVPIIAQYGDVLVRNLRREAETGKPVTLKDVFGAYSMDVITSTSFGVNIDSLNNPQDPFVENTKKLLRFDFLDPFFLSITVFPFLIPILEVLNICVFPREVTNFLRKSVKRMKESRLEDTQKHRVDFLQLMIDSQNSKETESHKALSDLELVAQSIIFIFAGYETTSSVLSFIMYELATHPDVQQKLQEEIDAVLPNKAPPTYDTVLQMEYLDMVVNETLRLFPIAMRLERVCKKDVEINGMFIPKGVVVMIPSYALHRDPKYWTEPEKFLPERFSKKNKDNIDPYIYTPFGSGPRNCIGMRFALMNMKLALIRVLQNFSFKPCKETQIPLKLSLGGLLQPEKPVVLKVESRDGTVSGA
# [14] = microsomes, 1 h
# [15] = system: BDBV (mucin-deleted glycoprotein, VSV pseudotype); test: microbe, parasite or virus in culture; format: cell-based, Bundibugyo ebolavirus; conditions: Vesicular stomatitis virus, Vero, 24 h, read-out: EC50 Pseudotype Assays BDBV
# [16] = microsomes, 1 h; remark: listed apart in the source
# Cyp-p450 2B6 = Cyp-p450 2B6 (Homo sapiens, UniProt P20813)
# Sequence of Cyp-p450 2B6 (P20813 whole entry): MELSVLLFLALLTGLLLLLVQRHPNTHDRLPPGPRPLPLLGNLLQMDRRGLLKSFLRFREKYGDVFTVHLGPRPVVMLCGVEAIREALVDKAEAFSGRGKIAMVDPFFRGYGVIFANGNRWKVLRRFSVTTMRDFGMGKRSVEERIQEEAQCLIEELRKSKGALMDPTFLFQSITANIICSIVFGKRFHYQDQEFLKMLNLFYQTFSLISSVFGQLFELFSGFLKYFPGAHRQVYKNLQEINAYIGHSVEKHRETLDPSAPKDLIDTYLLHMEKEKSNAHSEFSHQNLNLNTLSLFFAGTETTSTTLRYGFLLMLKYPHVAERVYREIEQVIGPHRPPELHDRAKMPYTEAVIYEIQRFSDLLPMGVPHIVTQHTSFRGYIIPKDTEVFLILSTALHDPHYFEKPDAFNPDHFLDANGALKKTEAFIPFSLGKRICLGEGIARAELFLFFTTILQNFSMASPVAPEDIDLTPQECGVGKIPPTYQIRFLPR
# in vitro [17] = conditions: human
# in vitro [18] = conditions: human, Caco-2
# P-gp = P-gp (Homo sapiens, UniProt P08183)
# Sequence of P-gp (P08183 whole entry): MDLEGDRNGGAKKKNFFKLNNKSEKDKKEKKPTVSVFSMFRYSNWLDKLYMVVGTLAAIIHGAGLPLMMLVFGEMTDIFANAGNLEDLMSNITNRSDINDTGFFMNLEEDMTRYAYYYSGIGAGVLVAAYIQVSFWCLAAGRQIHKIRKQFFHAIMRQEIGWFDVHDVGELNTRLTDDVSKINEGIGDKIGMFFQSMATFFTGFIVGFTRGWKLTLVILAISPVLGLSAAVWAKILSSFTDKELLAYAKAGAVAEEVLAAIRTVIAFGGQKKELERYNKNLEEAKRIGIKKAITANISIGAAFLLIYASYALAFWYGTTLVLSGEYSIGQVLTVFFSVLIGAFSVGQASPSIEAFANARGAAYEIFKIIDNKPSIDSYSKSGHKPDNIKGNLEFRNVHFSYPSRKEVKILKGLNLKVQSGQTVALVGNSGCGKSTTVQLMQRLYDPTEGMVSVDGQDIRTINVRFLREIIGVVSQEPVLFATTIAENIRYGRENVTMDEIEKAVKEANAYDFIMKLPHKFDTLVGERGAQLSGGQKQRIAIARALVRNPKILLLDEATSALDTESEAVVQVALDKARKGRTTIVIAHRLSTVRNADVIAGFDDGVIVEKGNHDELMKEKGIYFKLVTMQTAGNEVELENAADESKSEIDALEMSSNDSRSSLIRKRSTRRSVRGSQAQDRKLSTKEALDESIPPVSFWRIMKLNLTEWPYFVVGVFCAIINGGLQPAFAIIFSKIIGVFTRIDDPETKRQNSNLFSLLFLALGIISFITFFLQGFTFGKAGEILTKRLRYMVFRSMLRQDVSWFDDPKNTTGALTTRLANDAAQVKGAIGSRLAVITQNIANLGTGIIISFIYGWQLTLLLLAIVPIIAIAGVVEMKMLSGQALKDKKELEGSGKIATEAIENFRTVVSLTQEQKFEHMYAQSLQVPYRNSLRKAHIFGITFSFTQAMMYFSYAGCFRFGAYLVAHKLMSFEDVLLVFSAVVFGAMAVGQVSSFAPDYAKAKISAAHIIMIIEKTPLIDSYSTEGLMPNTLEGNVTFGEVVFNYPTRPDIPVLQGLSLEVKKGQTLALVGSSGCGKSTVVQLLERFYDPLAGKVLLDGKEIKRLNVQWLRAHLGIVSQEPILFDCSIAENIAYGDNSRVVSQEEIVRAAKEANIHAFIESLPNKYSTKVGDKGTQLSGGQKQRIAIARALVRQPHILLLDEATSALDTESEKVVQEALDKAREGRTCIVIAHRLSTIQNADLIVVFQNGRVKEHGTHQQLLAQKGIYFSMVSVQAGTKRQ
# [19] = microsomes, 1 h; remark: listed apart in the source
# Cyp-p450 2D6 = Cyp-p450 2D6 (Homo sapiens, UniProt P10635)
# Sequence of Cyp-p450 2D6 (P10635 whole entry): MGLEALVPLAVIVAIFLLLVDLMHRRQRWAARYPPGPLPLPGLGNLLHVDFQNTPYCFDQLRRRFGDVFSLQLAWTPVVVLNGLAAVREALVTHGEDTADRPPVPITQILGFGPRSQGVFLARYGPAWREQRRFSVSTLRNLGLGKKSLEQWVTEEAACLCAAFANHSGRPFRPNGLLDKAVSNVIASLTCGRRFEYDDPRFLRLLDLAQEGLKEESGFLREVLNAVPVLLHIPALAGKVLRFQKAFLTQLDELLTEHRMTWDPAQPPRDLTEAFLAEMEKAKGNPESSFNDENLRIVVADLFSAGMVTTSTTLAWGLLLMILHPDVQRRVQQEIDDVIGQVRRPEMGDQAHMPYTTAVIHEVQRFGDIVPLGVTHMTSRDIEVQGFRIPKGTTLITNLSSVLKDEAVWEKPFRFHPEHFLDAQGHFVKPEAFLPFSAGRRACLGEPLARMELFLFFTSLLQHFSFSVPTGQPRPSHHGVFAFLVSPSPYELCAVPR
# [20] = microsomes, 1 h; remark: listed apart in the source
# Cyp-p450 2C19 = Cyp-p450 2C19 (Homo sapiens, UniProt P33261)
# Sequence of Cyp-p450 2C19 (P33261 whole entry): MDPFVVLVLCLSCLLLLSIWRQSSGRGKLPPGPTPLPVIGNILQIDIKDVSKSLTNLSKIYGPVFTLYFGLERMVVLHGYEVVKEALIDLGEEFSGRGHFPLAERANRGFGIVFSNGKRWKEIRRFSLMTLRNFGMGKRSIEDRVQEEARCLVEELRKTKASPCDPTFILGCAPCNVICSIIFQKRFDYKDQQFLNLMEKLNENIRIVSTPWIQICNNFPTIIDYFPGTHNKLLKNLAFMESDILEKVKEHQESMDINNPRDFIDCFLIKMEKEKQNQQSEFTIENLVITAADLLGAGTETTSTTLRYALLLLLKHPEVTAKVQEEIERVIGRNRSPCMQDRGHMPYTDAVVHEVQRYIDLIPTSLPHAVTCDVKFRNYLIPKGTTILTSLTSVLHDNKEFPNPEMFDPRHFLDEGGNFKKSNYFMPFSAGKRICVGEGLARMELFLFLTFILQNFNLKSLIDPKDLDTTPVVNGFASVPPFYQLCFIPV
# [21] = system: MARV (full-length glycoprotein, VSV pseudotype); test: microbe, parasite or virus in culture; format: cell-based, Marburg marburgvirus; conditions: Vesicular stomatitis virus, Vero, 24 h, read-out: EC50 Pseudotype Assays MARV
structure (smiles),measurement,setting,value
C[C@]12CC3CC(C(=O)N[C@H]4CC[C@@H](N)CC4)(C1)C[C@@](c1ccccc1)(C3)C2.Cl [Example B2],Ebola Zaire SI (CC50/EC90),Ebola Zaire [1],72.5
same,CC50,in vitro [2],19100 nM
same,solubility,physchem,> 500 µM
same,EC50,Sudan Gulu [3],1100 nM
same,fraction unbound,in vitro [4],0.011
same,CC50,in vitro [5],67600 nM
same,EC50,Ebola Zaire [6],440 nM
same,EC50,Sudan Gulu [7],180 nM
same,EC90,Ebola Zaire [8],800 nM
same,IC50,Cyp-p450 2C8,> 100000 nM
same,EC50,Ebola Zaire [9],240 nM
same,EC50,[10],10 nM
same,Turbidimetric solubility,[11],>500 µM
same,EC50,[12],15 nM
same,IC50,Cyp-p450 2C9,> 100000 nM
same,SI50 (CC50/EC50),EBOV (Mayinga),282
same,EC50,"EBOV (Mayinga); Zaire ebolavirus, Vero",240 nM
same,IC50,Cyp-p450 1A2,> 100000 nM
same,EC50,[13],277 nM
same,IC50,Cyp-p450 3A4; CYP Inhibition 3A4 (Midazolam),> 100000 nM
same,IC50,Cyp-p450 3A4; CYP Inhibition 3A4 (Testosterone),88000 nM
same,"Liver Microsome Stability % Remaining after 60 Minutes, Mouse",[14],71%
same,EC50,[15],67 nM
same,"Liver Microsome Stability % Remaining after 60 Minutes, Guinea Pig",[16],100%
same,IC50,Cyp-p450 2B6,> 100000 nM
same,fraction unbound,in vitro [17],0.039
same,Papp A→B,in vitro [18],3.07 ×10⁻⁶ cm/s
same,Papp B→A,in vitro [18],7.86 ×10⁻⁶ cm/s
same,efflux ratio,in vitro [18],2.71
same,P-gp substrate ID Caco-2 Permeability (+Verapamil) Paap Mean A > B,P-gp,6.19 10^−6 cm s^−1
same,P-gp substrate ID Caco-2 Permeability (+Verapamil) Paap Mean B > A,P-gp,6.83 10^−6 cm s^−1
same,"Liver Microsome Stability % Remaining after 60 Minutes, Monkey",[19],85%
same,IC50,Cyp-p450 2D6,> 100000 nM
same,"Liver Microsome Stability % Remaining after 60 Minutes, Human",[20],100%
same,IC50,Cyp-p450 2C19,51000 nM
same,EC50,[21],6450 nM
